{
  "source": "patent US20060211744A1",
  "about": "“3-Pyridinecarboxamide reduces nerve degeneration” (Children's Medical Center, priority 2005, published 2006)",
  "key": {"[1]": {"system": "cultured hippocampal neurons", "assay": "Synaptic loss and process degeneration in cultured hippocampal neurons (dominant-negative Nmnat1)", "format": "cell-based", "details": "50-200 μM, up to 72 hr", "source_text": "We next attempted to examine whether decreasing NAD levels can induce similar “dying-back” axon degeneration in neurons with established synaptic connections. Such experiments might allow us to assess whether the degenerative processes in axons and other neuronal structures, including synaptic structures and dendritic processes, share similar mechanisms. To do this, we introduced both wild type and dominant negative Nmnat1 into cultured hippocampal neurons at 20 days in vitro (DIV 20), when their synaptic connections have formed and matured (Brewer et al. 1993), and examined their effects on axons as well as dendrites and synapses. As a conventional approach to visualize these neuronal structures, we also co-infected the hippocampal neurons with HSV expressing YFP. […] Moreover, neuronal NAD levels declined from 24-48 hr post-infection with viruses expressing dominant-negative Nmnat1 but not wild type Nmnat1 or YFP. Thus, we decided to focus our analysis on the first 60 hours post-infection.\nTo monitor changes in synaptic structures, we co-infected DIV20 neurons with HSV expressing YFP and wild type or the mutant Nmnat1, and quantified both spine density and the length and branching of axons and dendrites. As the density of dendritic spines has been considered a reliable indicator for synapse number (reviewed by Hering and Sheng, 2001), we performed high-resolution YFP imaging in neurons co-expressing YFP and Nmnat1 proteins at the indicated time points post-infection to measure the spine densities in these co-infected neurons. Dendrite length and branching patterns were analyzed using Sholl's method of regularly spaced concentric circles centered on the neuronal soma (Sholl, 1953). […]\nIn the experiments described above, we also performed immunostaining with antibodies against the presynaptic marker bassoon, and found a decrease of positively-stained synaptic structures. However, due to the complex morphology of the axons that makes it extremely difficult to quantify the axonal length in DIV20 hippocampal neurons, we […]. […]"}, "[2]": {"system": "transected axons from cultured dorsal root ganglia (DRG)", "assay": "HPLC measurement of NAD and ATP levels in degenerating axons of cultured DRG", "format": "cell-based", "experimental": "As a first step in examining the role of NAD in Wallerian degeneration, we used an ultra-sensitive high-performance liquid chromatography (HPLC) method (Micheli and Sestini, 1997) to measure the concentration of NAD and its derivatives in degenerating axons. To do this, the acidic lysates were prepared from axonal segments collected at different time points after transecting the axons from cultured dorsal root ganglia (DRG) and resolved by reverse-phase chromatography. 2 hr after axotomy, when the transected axons were still morphologically indistinguishable from their uncut controls, NAD levels began to decrease. This NAD decrease continued over the course of degeneration, reaching about 50% at 4 hr post-axotomy, to almost undetectable levels by 6 hr after axotomy, when early morphological signs of degeneration began to develop. […] By a similar approach of alkaline extraction (Micheli and Sestini, 1997), it has been difficult for us to detect NADH in the axonal extracts, presumably due to the low abundance of NADH and the high NAD/NADH ratio reported in mammalian cells (Zhang et al., 2002, Kasischke et al., 2004, Kannurpatti et al., 2004).\nIn addition to acting as co-factors for Sirt1 and other NAD-dependent enzymes, NAD is also essential for ATP-synthesizing redox reactions which are involved in glycolysis and oxidative phosphorylation (Shibata et al., 1991). […]"}, "[3]": {"system": "EAE mice (wild type or Wlds)", "assay": "Mouse EAE model, subcutaneous nicotinamide (Example 9 end, Example 12)", "format": "in vivo", "details": "for reduction of neural degeneration in EAE mice: daily from day of MOG immunization", "experimental": "In initial experiments, we administered nicotinamide daily starting from the day of immunization by MOG peptide, and found efficacy in both 125 mg/kg and 500 mg/kg treatment groups. We have also examined groups of mice wherein initiation of nicotinamide administration was delayed until 10 days after the immunization by MOG peptide (delayed treatment group), to better model clinical conditions wherein patients typically begin treatment after onset of pathogenic autoimmunity.\nIn this example we administered NAm by daily subcutaneous injection at two different dosages (125 or 500 mg/kg, dissolved by PBS) starting from the day of MOG immunization. As a control, we administered the same volume of PBS into either wild type or Wld^s mice. The EAE models were induced following essentially the procedure described in Kalyvas et al (2004, Neuron 41, 323-335). Other protocols were adapted from Wang, et al. (2005) J. Cell. Biol. 170: 349-355.\nWe started treatments with NAm (500 mg/kg, daily subcutaneous injection) from 10 days P.I. when most of the animals already have clear clinical symptoms."}, "[4]": {"system": "SOD1-G93A transgenic mice", "format": "in vivo", "details": "for reduction of neural degeneration in ALS mice, behavioral testing: subcutaneous, daily from 10 weeks from birth"}, "[5]": {"details": "500 mg/kg daily s.c. from 10 days P.I."}, "[6]": {"details": "SOD1-G93A, nicotinamide diet from 7 wk of age"}},
  "note": "Like-named read-outs stand apart in the source and are kept apart here.",
  "data": [
    {"smiles": "NC(=O)c1cccnc1", "note": "[nicotinamide, 3-pyridinecarboxamide]", "values": [
      {"measurement": "dendritic spine quantity or structure, compound alone", "setting": "[1]", "value": "did not induce significant changes"},
      {"measurement": "axonal NAD levels after transection (HPLC)", "setting": "[2]; exogenously applied", "value": "delayed the decrease of axonal NAD levels"},
      {"measurement": "ATP levels in transected axons separated from their somas", "setting": "[2]; exogenously provided", "value": "delayed the decrease of ATP levels"},
      {"measurement": "NAD levels, delayed treatment", "setting": "[3]; [5]", "value": "increased NAD levels effectively"},
      {"measurement": "further development of EAE symptoms, delayed treatment", "setting": "[3]; [5]", "value": "efficiently attenuated further development of EAE symptoms"},
      {"measurement": "number of degenerating axons, delayed treatment", "setting": "[3]; 500 mg/kg daily s.c. from 10 days P.I., 8 weeks P.I.", "value": "significantly reduced the number of degenerating axons"},
      {"measurement": "degenerating axons detected compared with untreated animals", "setting": "[3]; Wlds mice, high dose", "value": "~5", "unit": "%"},
      {"measurement": "effect on EAE symptoms", "setting": "[3]; Wlds mice, high dose 500 mg/kg", "value": "More dramatic improvements"},
      {"measurement": "NAD levels at 2 and 4 weeks P.I.", "setting": "[3]; Wlds mice, high dose (500 mg/kg) s.c.", "value": "remained at high levels"},
      {"measurement": "axons remaining morphologically intact (Toluidine Blue)", "setting": "[3]; Wlds mice, high dose, 8 weeks P.I.", "value": "~90", "unit": "%"},
      {"measurement": "NAD levels at 2 weeks P.I.", "setting": "[3]; daily s.c. 125 or 500 mg/kg from day of MOG immunization", "value": "dramatically increased NAD levels in a dose-dependent manner"},
      {"measurement": "reduction of neural degeneration in EAE mice", "setting": "[3]; subcutaneous, 125 mg/kg", "value": "efficacy"},
      {"measurement": "reduction of neural degeneration in EAE mice", "setting": "[3]; subcutaneous, 500 mg/kg", "value": "efficacy"},
      {"measurement": "neural degeneration versus matched controls, delayed treatment group", "setting": "[3]; subcutaneous, started 10 days after MOG immunization", "value": "reduced neural degeneration"},
      {"measurement": "axons in peripheral regions of the spinal cord", "setting": "[3]; wild type EAE mice, high dose", "value": "increased numbers of demyelinated but preserved axons"},
      {"measurement": "numbers of SMI-32-positive axons", "setting": "[3]; wild type and Wlds mice, 2, 4 and 8 weeks P.I.", "value": "significantly reduced numbers"},
      {"measurement": "onset and development of EAE symptoms", "setting": "[3]; wild type mice, 125 or 500 mg/kg s.c. daily", "value": "ameliorated the onset and development of EAE symptoms in a dose-dependent manner"},
      {"measurement": "NAD levels at 4 weeks P.I.", "setting": "[3]; wild type mice, continuous daily s.c. administration", "value": "returned to near-normal levels"},
      {"measurement": "degenerating axons detected compared with untreated animals", "setting": "[3]; wild type mice, high dose", "value": "approximately 10%"},
      {"measurement": "effect on EAE onset and severity", "setting": "[3]; wild type mice, high dose 500 mg/kg", "value": "significant improvement"},
      {"measurement": "axons remaining morphologically intact (Toluidine Blue)", "setting": "[3]; wild type mice, high dose, 8 weeks P.I. (control wild type EAE 25%)", "value": "approximately 70%"},
      {"measurement": "age at bilateral hindlimb paralysis", "setting": "[4]; SOD1-G93A, both normal diet and nicotinamide diet", "value": "127-157 days of age"},
      {"measurement": "age through to which walking capacity is improved (grid walking test)", "setting": "[4]; SOD1-G93A, nicotinamide diet", "value": "124 days of age"},
      {"measurement": "age through to which motor functions are preserved (Rotarod)", "setting": "[4]; SOD1-G93A, nicotinamide diet (control diet onset 108 days)", "value": "120 days of age"},
      {"measurement": "onset of impairment in balance, coordination and muscle strength (Rotarod)", "setting": "[4]; [6]", "value": "significantly delays the onset of impairment"},
      {"measurement": "walking capacity (grid walking test)", "setting": "[4]; [6]", "value": "significantly improves walking capacity"},
      {"measurement": "Rotarod performance score (latency)", "setting": "[4]; mouse, in vivo", "value": 180, "unit": "s"},
      {"measurement": "body condition scoring (BCS)", "setting": "[4]; mouse, in vivo", "value": 3},
      {"measurement": "foot miss scores (grid walking test)", "setting": "[4]; mouse, in vivo", "value": 0},
      {"measurement": "general health and neurologic status (lacrimation/salivation, eye blink, ear twitch, pupillary response, whisker orienting reflex)", "setting": "[4]; mouse, in vivo", "value": "no obvious differences"},
      {"measurement": "reduction of neural degeneration in ALS mice, behavioral testing", "setting": "[4]; 125 mg/kg", "value": "efficacy"},
      {"measurement": "reduction of neural degeneration in ALS mice, behavioral testing", "setting": "[4]; 500 mg/kg", "value": "efficacy"}
    ]}
  ]
}
